Results reported in the kinase profiling compilation of Christmann-Franck et al. (2016).
Each block holds one molecule with its values, some of them ahead of it.

Assays:
Assay in all cases: radiometric filter-binding kinase assay
CAMKK2 (human) = CAMKK2 (human) (UniProt Q96RR4)
SRC (human) = SRC (human) (UniProt P12931)
PAK4 (human) = PAK4 (human) (UniProt O96013)
MAP2K1 (human) = MAP2K1 (human) (UniProt Q02750)
PRKCZ (human) = PRKCZ (human) (UniProt Q05513)
CSNK2A1 (human) = CSNK2A1 (human) (UniProt P68400)
MARK3 (human) = MARK3 (human) (UniProt P27448)
JAK2 JH1 JH2 (human) = JAK2 JH1 JH2 (human) (UniProt O60674)
PRKACA (human) = PRKACA (human) (UniProt P17612)
MAP3K9 (human) = MAP3K9 (human) (UniProt P80192)
IGF1R (human) = IGF1R (human) (UniProt P08069)
DYRK1A (human) = DYRK1A (human) (UniProt Q13627)
MKNK1 (human) = MKNK1 (human) (UniProt Q9BUB5)
INSR (human) = INSR (human) (UniProt P06213)
CaMK1 (human) = CaMK1 (human) (UniProt Q14012)
MAP3K11 (human) = MAP3K11 (human) (UniProt Q16584)
NTRK1 (human) = NTRK1 (human) (UniProt P04629)
NUAK1 (human) = NUAK1 (human) (UniProt O60285)
SYK (human) = SYK (human) (UniProt P43405)
PHKG1 (human) = PHKG1 (human) (UniProt Q16816)
MAPK10 (human) = MAPK10 (human) (UniProt P53779)
YES1 (human) = YES1 (human) (UniProt P07947)
RIPK2 (human) = RIPK2 (human) (UniProt O43353)
MAPK13 (human) = MAPK13 (human) (UniProt O15264)
CHEK1 (human) = CHEK1 (human) (UniProt O14757)
LCK (mouse) = conditions: accession and sequence are those of the human protein
MST4 (human) = MST4 (human) (UniProt Q9P289)
AURKB (human) = AURKB (human) (UniProt Q96GD4)
PRKAA1 or PRKAA2 (rat) = conditions: accession and sequence are those of the human protein
PIM2 (human) = PIM2 (human) (UniProt Q9P1W9)
[1] = test system: AKT2 (human), P31751 [S474D]
EPHB3 (human) = EPHB3 (human) (UniProt P54753)
MINK1 (human) = MINK1 (human) (UniProt Q8N4C8)
MARK4 (human) = MARK4 (human) (UniProt Q96L34)
CDK2 CCNA2 (human) = CDK2 CCNA2 (human) (UniProt P20248+P24941)
INSRR (human) = INSRR (human) (UniProt P14616)

Sequence of MARK4 (human) (Q96L34 whole entry, looked up): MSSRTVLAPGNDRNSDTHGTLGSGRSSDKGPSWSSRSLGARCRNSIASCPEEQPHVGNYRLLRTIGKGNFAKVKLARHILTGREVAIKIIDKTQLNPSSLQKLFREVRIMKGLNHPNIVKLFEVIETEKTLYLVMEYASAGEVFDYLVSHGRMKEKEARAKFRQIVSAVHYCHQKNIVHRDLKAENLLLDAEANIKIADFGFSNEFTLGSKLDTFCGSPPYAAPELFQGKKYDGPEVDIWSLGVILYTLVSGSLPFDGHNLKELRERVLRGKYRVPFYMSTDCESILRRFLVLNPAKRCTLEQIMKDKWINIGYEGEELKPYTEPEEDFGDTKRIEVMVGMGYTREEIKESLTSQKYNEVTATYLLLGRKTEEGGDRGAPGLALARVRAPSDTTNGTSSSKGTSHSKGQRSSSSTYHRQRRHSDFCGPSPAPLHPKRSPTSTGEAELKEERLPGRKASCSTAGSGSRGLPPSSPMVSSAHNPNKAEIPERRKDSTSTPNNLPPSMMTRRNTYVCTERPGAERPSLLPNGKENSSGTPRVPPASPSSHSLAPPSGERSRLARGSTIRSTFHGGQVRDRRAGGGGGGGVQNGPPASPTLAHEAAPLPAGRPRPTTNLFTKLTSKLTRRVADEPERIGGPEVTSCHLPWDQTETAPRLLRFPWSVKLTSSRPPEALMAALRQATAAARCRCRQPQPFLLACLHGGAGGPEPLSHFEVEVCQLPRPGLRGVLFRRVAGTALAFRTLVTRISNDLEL
Sequence of AURKB (human) (Q96GD4 whole entry, looked up): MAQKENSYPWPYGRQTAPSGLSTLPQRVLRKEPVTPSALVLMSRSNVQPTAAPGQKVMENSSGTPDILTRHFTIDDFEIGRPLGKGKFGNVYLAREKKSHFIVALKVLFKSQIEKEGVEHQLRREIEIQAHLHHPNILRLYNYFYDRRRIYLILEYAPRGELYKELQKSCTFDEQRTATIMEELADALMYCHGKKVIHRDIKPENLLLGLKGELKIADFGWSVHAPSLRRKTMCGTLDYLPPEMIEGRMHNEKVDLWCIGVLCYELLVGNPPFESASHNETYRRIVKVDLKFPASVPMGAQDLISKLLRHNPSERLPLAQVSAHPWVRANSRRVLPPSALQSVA
Sequence of CSNK2A1 (human) (P68400 whole entry, looked up): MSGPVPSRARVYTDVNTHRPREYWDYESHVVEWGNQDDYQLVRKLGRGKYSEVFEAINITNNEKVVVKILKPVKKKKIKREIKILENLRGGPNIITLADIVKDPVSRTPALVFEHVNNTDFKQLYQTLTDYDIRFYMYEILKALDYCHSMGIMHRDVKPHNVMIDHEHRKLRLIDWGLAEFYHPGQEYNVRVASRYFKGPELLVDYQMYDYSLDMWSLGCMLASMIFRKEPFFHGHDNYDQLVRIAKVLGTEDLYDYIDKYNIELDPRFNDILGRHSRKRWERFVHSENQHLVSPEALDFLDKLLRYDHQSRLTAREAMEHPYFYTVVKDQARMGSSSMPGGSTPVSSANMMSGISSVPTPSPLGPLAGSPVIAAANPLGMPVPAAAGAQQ
Sequence of SRC (human) (P12931 whole entry, looked up): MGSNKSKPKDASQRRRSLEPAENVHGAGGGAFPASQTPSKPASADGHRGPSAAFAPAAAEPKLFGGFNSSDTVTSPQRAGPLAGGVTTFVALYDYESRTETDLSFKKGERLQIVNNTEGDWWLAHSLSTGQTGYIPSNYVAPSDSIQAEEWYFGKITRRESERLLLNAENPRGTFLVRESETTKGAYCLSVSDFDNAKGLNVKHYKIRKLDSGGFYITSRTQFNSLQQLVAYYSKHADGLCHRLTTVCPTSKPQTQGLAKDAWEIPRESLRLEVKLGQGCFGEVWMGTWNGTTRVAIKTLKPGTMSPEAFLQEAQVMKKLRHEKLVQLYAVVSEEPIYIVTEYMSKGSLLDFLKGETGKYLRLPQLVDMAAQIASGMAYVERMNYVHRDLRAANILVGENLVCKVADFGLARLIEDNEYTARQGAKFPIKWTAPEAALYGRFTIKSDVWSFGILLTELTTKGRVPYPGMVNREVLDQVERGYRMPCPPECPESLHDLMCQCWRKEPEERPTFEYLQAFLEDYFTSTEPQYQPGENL
Sequence of RIPK2 (human) (O43353 whole entry, looked up): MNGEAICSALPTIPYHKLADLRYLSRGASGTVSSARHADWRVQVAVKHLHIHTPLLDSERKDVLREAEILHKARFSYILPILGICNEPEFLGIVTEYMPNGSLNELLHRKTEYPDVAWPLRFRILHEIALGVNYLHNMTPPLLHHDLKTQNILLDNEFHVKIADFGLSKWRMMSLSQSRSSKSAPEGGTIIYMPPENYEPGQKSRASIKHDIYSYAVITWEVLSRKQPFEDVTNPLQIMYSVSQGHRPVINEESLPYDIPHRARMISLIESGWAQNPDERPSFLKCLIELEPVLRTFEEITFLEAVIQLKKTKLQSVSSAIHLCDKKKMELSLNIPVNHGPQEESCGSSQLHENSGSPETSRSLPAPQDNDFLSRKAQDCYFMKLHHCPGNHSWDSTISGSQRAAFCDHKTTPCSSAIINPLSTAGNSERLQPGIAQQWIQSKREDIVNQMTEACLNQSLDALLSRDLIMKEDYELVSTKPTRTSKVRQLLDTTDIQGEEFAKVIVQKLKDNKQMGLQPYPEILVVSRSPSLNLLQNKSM
Sequence of PHKG1 (human) (Q16816 whole entry, looked up): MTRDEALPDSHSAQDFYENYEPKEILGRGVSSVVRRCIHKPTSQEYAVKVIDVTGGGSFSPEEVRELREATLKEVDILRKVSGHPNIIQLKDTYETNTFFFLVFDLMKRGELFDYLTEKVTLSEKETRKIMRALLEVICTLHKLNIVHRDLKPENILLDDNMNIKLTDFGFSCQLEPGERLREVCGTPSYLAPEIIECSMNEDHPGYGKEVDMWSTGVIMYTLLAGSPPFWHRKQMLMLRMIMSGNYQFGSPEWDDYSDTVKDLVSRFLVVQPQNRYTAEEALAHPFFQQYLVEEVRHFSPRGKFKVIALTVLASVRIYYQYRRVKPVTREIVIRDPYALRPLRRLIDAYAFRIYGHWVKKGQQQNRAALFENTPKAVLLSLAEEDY
Sequence of NUAK1 (human) (O60285 whole entry, looked up): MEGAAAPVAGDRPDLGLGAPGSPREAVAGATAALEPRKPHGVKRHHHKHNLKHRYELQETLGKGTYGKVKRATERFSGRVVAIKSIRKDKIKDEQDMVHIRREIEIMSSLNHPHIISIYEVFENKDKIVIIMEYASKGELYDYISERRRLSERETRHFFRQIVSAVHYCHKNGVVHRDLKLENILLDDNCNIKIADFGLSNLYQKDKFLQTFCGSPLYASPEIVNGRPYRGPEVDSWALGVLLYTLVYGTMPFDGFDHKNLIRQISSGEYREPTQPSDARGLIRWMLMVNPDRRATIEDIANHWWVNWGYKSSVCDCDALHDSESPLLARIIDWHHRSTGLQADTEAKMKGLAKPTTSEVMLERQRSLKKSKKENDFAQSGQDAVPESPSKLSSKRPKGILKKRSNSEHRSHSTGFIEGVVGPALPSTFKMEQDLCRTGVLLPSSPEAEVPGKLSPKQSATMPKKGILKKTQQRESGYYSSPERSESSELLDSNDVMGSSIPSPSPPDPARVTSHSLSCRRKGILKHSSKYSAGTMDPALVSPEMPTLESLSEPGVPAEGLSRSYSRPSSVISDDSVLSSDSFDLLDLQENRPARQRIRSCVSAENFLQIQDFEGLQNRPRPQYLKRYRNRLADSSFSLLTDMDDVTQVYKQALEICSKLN
Sequence of MAP2K1 (human) (Q02750 whole entry, looked up): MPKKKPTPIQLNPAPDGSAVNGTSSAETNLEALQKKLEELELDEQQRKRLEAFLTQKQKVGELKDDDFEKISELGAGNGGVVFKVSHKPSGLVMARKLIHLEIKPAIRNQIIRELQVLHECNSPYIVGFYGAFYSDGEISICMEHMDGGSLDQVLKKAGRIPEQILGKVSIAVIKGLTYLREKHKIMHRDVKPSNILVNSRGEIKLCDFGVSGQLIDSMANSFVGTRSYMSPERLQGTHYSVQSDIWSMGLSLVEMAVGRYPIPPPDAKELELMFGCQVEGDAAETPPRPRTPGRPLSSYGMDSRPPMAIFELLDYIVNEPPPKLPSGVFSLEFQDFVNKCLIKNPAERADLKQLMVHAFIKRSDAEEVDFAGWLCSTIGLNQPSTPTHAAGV
Sequence of MAP3K11 (human) (Q16584 whole entry, looked up): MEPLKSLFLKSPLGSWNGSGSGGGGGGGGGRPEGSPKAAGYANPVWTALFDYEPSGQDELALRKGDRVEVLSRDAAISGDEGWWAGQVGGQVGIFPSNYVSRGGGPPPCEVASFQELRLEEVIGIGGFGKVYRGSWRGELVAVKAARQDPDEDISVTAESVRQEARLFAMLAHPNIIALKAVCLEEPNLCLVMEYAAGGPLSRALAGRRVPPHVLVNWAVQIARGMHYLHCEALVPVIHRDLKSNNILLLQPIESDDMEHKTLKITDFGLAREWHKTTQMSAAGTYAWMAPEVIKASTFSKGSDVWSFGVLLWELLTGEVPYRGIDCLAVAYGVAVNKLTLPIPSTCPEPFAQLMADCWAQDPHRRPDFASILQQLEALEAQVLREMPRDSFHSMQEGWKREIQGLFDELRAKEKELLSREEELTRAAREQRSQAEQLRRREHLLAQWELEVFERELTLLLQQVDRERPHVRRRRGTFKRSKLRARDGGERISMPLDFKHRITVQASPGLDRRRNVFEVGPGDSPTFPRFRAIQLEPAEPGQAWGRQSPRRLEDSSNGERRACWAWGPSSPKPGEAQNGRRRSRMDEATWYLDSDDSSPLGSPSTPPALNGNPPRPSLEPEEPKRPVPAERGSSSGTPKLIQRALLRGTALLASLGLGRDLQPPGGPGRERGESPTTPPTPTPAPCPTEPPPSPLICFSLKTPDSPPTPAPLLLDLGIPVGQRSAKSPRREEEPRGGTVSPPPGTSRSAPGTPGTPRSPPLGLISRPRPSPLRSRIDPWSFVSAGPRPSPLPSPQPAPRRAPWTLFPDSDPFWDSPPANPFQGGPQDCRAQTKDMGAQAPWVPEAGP

residual activity (CAMKK2 (human); compound 1.0 µM): 96%
residual activity (CAMKK2 (human); compound 10.0 µM): 108%
residual activity (SRC (human); compound 10.0 µM): 113%
residual activity (PAK4 (human); compound 1.0 µM): 101%
residual activity (PAK4 (human); compound 10.0 µM): 106%
residual activity (MAP2K1 (human); compound 1.0 µM): 95%
residual activity (MAP2K1 (human); compound 10.0 µM): 99%
residual activity (PRKCZ (human); compound 10.0 µM): 96%
residual activity (CSNK2A1 (human); compound 1.0 µM): 80%
residual activity (CSNK2A1 (human); compound 10.0 µM): 88%
residual activity (MARK3 (human); compound 1.0 µM): 101%
residual activity (MARK3 (human); compound 10.0 µM): 100%
residual activity (JAK2 JH1 JH2 (human); compound 1.0 µM): 89%
residual activity (JAK2 JH1 JH2 (human); compound 10.0 µM): 93%
residual activity (PRKACA (human); compound 1.0 µM): 73%
residual activity (PRKACA (human); compound 10.0 µM): 81%
residual activity (MAP3K9 (human); compound 1.0 µM): 82%
residual activity (MAP3K9 (human); compound 10.0 µM): 88%
residual activity (IGF1R (human); compound 1.0 µM): 94%
residual activity (IGF1R (human); compound 10.0 µM): 88%
residual activity (DYRK1A (human); compound 1.0 µM): 96%
residual activity (DYRK1A (human); compound 10.0 µM): 103%
residual activity (MKNK1 (human); compound 1.0 µM): 104%
residual activity (MKNK1 (human); compound 10.0 µM): 92%
residual activity (INSR (human); compound 1.0 µM): 89%
residual activity (INSR (human); compound 10.0 µM): 93%
residual activity (CaMK1 (human); compound 1.0 µM): 114%
residual activity (CaMK1 (human); compound 10.0 µM): 110%
residual activity (MAP3K11 (human); compound 1.0 µM): 92%
residual activity (MAP3K11 (human); compound 10.0 µM): 92%
residual activity (NTRK1 (human); compound 10.0 µM): 92%
residual activity (NUAK1 (human); compound 1.0 µM): 98%
residual activity (NUAK1 (human); compound 10.0 µM): 96%
residual activity (SYK (human); compound 1.0 µM): 92%
residual activity (SYK (human); compound 10.0 µM): 104%
residual activity (PHKG1 (human); compound 1.0 µM): 109%
residual activity (PHKG1 (human); compound 10.0 µM): 106%
residual activity (MAPK10 (human); compound 1.0 µM): 81%
residual activity (MAPK10 (human); compound 10.0 µM): 82%
residual activity (YES1 (human); compound 10.0 µM): 79%
residual activity (RIPK2 (human); compound 1.0 µM): 107%
residual activity (RIPK2 (human); compound 10.0 µM): 121%
residual activity (MAPK13 (human); compound 1.0 µM): 92%
residual activity (MAPK13 (human); compound 10.0 µM): 90%
residual activity (CHEK1 (human); compound 1.0 µM): 91%
residual activity (CHEK1 (human); compound 10.0 µM): 98%
residual activity (LCK (mouse); compound 1.0 µM): 98%
residual activity (LCK (mouse); compound 10.0 µM): 110%
residual activity (MST4 (human); compound 1.0 µM): 83%
residual activity (MST4 (human); compound 10.0 µM): 88%
residual activity (AURKB (human); compound 10.0 µM): 93%
residual activity (PRKAA1 or PRKAA2 (rat); compound 1.0 µM): 96%
residual activity (PRKAA1 or PRKAA2 (rat); compound 10.0 µM): 99%
residual activity (PIM2 (human); compound 10.0 µM): 101%
residual activity ([1]; compound 10.0 µM): 88%
residual activity (EPHB3 (human); compound 10.0 µM): 129%
residual activity (MINK1 (human); compound 1.0 µM): 93%
residual activity (MINK1 (human); compound 10.0 µM): 96%
residual activity (MARK4 (human); compound 1.0 µM): 93%
residual activity (MARK4 (human); compound 10.0 µM): 103%
residual activity (CDK2 CCNA2 (human); compound 1.0 µM): 84%
residual activity (CDK2 CCNA2 (human); compound 10.0 µM): 90%
residual activity (INSRR (human); compound 1.0 µM): 87%
residual activity (INSRR (human); compound 10.0 µM): 83%
Structure (SMILES): NS(=O)(=O)OC[C@@H]1C[C@@H](n2ccc3c(N[C@H]4CCc5ccccc54)ncnc32)C[C@@H]1O

residual activity (CAMKK2 (human); compound 0.1 µM): 99%
residual activity (CAMKK2 (human); compound 1.0 µM): 61%
residual activity (CAMKK2 (human); compound 10.0 µM): 30%
residual activity (SRC (human); compound 0.1 µM): 100%
residual activity (SRC (human); compound 1.0 µM): 89%
residual activity (SRC (human); compound 10.0 µM): 108%
residual activity (PAK4 (human); compound 0.1 µM): 65%
residual activity (PAK4 (human); compound 1.0 µM): 18%
residual activity (PAK4 (human); compound 10.0 µM): 7%
residual activity (MAP2K1 (human); compound 0.1 µM): 90%
residual activity (MAP2K1 (human); compound 1.0 µM): 86%
residual activity (MAP2K1 (human); compound 10.0 µM): 17%
residual activity (PRKCZ (human); compound 0.1 µM): 108%
residual activity (PRKCZ (human); compound 1.0 µM): 93%
residual activity (PRKCZ (human); compound 10.0 µM): 82%
residual activity (CSNK2A1 (human); compound 0.1 µM): 91%
residual activity (CSNK2A1 (human); compound 1.0 µM): 94%
residual activity (CSNK2A1 (human); compound 10.0 µM): 100%
residual activity (MARK3 (human); compound 0.1 µM): 104%
residual activity (MARK3 (human); compound 1.0 µM): 69%
residual activity (MARK3 (human); compound 10.0 µM): 26%
residual activity (JAK2 JH1 JH2 (human); compound 0.1 µM): 101%
residual activity (JAK2 JH1 JH2 (human); compound 1.0 µM): 90%
residual activity (JAK2 JH1 JH2 (human); compound 10.0 µM): 43%
residual activity (PRKACA (human); compound 0.1 µM): 80%
residual activity (PRKACA (human); compound 1.0 µM): 103%
residual activity (PRKACA (human); compound 10.0 µM): 96%
residual activity (MAP3K9 (human); compound 0.1 µM): 54%
residual activity (MAP3K9 (human); compound 1.0 µM): 18%
residual activity (MAP3K9 (human); compound 10.0 µM): 6%
residual activity (IGF1R (human); compound 0.1 µM): 113%
residual activity (IGF1R (human); compound 1.0 µM): 87%
residual activity (IGF1R (human); compound 10.0 µM): 13%
residual activity (DYRK1A (human); compound 0.1 µM): 72%
residual activity (DYRK1A (human); compound 1.0 µM): 21%
residual activity (DYRK1A (human); compound 10.0 µM): 5%
residual activity (MKNK1 (human); compound 0.1 µM): 107%
residual activity (MKNK1 (human); compound 1.0 µM): 114%
residual activity (MKNK1 (human); compound 10.0 µM): 99%
residual activity (INSR (human); compound 0.1 µM): 103%
residual activity (INSR (human); compound 1.0 µM): 81%
residual activity (INSR (human); compound 10.0 µM): 18%
residual activity (CaMK1 (human); compound 0.1 µM): 107%
residual activity (CaMK1 (human); compound 1.0 µM): 90%
residual activity (CaMK1 (human); compound 10.0 µM): 38%
residual activity (MAP3K11 (human); compound 0.1 µM): 74%
residual activity (MAP3K11 (human); compound 1.0 µM): 19%
residual activity (MAP3K11 (human); compound 10.0 µM): 4%
residual activity (NTRK1 (human); compound 0.1 µM): 92%
residual activity (NTRK1 (human); compound 1.0 µM): 73%
residual activity (NTRK1 (human); compound 10.0 µM): 28%
residual activity (NUAK1 (human); compound 0.1 µM): 81%
residual activity (NUAK1 (human); compound 1.0 µM): 24%
residual activity (NUAK1 (human); compound 10.0 µM): 6%
residual activity (SYK (human); compound 0.1 µM): 96%
residual activity (SYK (human); compound 1.0 µM): 88%
residual activity (SYK (human); compound 10.0 µM): 56%
residual activity (PHKG1 (human); compound 0.1 µM): 104%
residual activity (PHKG1 (human); compound 1.0 µM): 92%
residual activity (PHKG1 (human); compound 10.0 µM): 55%
residual activity (MAPK10 (human); compound 0.1 µM): 97%
residual activity (MAPK10 (human); compound 10.0 µM): 46%
residual activity (YES1 (human); compound 1.0 µM): 66%
residual activity (YES1 (human); compound 10.0 µM): 13%
residual activity (RIPK2 (human); compound 0.1 µM): 86%
residual activity (RIPK2 (human); compound 1.0 µM): 36%
residual activity (RIPK2 (human); compound 10.0 µM): 12%
residual activity (MAPK13 (human); compound 0.1 µM): 83%
residual activity (MAPK13 (human); compound 1.0 µM): 77%
residual activity (MAPK13 (human); compound 10.0 µM): 36%
residual activity (CHEK1 (human); compound 0.1 µM): 100%
residual activity (CHEK1 (human); compound 1.0 µM): 64%
residual activity (CHEK1 (human); compound 10.0 µM): 29%
residual activity (LCK (mouse); compound 0.1 µM): 105%
residual activity (LCK (mouse); compound 1.0 µM): 88%
residual activity (LCK (mouse); compound 10.0 µM): 67%
residual activity (MST4 (human); compound 0.1 µM): 102%
residual activity (MST4 (human); compound 1.0 µM): 75%
residual activity (MST4 (human); compound 10.0 µM): 35%
residual activity (AURKB (human); compound 0.1 µM): 110%
residual activity (AURKB (human); compound 1.0 µM): 96%
residual activity (AURKB (human); compound 10.0 µM): 43%
residual activity (PRKAA1 or PRKAA2 (rat); compound 0.1 µM): 99%
residual activity (PRKAA1 or PRKAA2 (rat); compound 1.0 µM): 95%
residual activity (PRKAA1 or PRKAA2 (rat); compound 10.0 µM): 68%
residual activity (PIM2 (human); compound 0.1 µM): 98%
residual activity (PIM2 (human); compound 1.0 µM): 95%
residual activity (PIM2 (human); compound 10.0 µM): 81%
residual activity ([1]; compound 0.1 µM): 94%
residual activity ([1]; compound 1.0 µM): 88%
residual activity ([1]; compound 10.0 µM): 98%
residual activity (EPHB3 (human); compound 0.1 µM): 128%
residual activity (EPHB3 (human); compound 1.0 µM): 113%
residual activity (EPHB3 (human); compound 10.0 µM): 92%
residual activity (MINK1 (human); compound 0.1 µM): 58%
residual activity (MINK1 (human); compound 1.0 µM): 12%
residual activity (MINK1 (human); compound 10.0 µM): 4%
residual activity (MARK4 (human); compound 0.1 µM): 88%
residual activity (MARK4 (human); compound 1.0 µM): 82%
residual activity (MARK4 (human); compound 10.0 µM): 46%
residual activity (CDK2 CCNA2 (human); compound 0.1 µM): 97%
residual activity (CDK2 CCNA2 (human); compound 1.0 µM): 87%
residual activity (CDK2 CCNA2 (human); compound 10.0 µM): 35%
residual activity (INSRR (human); compound 0.1 µM): 66%
residual activity (INSRR (human); compound 1.0 µM): 26%
residual activity (INSRR (human); compound 10.0 µM): 16%
Structure (SMILES): NC(=O)c1cc2c(-c3cccc(-c4ccccc4)c3)cnc(N)c2s1
